Values quoted from earlier work, collected in patent US20060141030A1, “Method and composition for stable and controlled delivery of (-)-hydroxycitric acid” (priority 2003, published 2006).

How the values were obtained:
test subjects = conditions: chronic administration; resting and exercising conditions
experimental animals = conditions: single large oral dose or two divided oral doses totaling one fourth of it; high-sugar diet
[1] = tested on: human hepatoma cell line Hep G2
middle-aged rats = conditions: 30% fat diet

SMILES | respiratory exchange ratio (test subjects) | reduction in food consumption (experimental animals) [%] | incorporation of [1,5-14C]citrate into fatty acids and cholesterol ([1]; Hep G2, HCA 0.5 mM or higher, 2.5 h and 18 h incubations) | cholesterol biosynthesis, of the control value ([1]; Hep G2, incorporation from 3H2O) [%] | protein and fat as percentage of body weight (middle-aged rats)
O=C(O)CC(O)(C(=O)O)C(O)C(=O)O (single isomer, unassigned; (-)) [HCA, (−)-Hydroxycitric acid] | significantly lower | ≥ 10 | strongly inhibited | 27 | –
O=C([O-])CC(O)(C(=O)[O-])C(O)C(=O)[O-].[K+].[K+].[K+] (centres unmarked) [potassium HCA] | – | – | – | – | increased protein as a percentage of body weight while reducing fat as a percentage of body weight
